SMILES strings stand for the structures. Where only a bound is given, the exact number is not on record here.

Data set [1] relates to cAMP stimulated acid secretion, mouse gastric glands. The data set is described as follows: cAMP stimulated acid secretion (14C-aminopyrine accumulation) in isolated mouse gastric glands. In kind it is cell-based. Conditions: 100 μM, 60 min, 37° C. The method, then: (§1) Acid secretion is measured indirectly by the accumulation of the weak base ^14 C-aminopyrine in the isolated murine gastric glands of mouse. The assay is performed in polypropylene eppendorf tubes containing 0.5 mL of resuspended mouse gastric glands. In addition, tubes contain the tested drug, acid secretagogues (e.g. histamine, di-butyryl cyclic AMP (cAMP), carbachol) and ^14 C-aminopyrine. Tubes are incubated for 60 min. at 37° C. and continuously rotated. The reaction is stopped by centrifugation of the gland suspension for five min. at 1500 g. Supernatant is aspirated leaving the pellet containing intact gastric glands. The pellet is washed extensively and digested overnight in 1 mL of Protosol (Amersham). After neutralisation with acetic acid and addition of scintillation fluid, the radioactivity is counted in a beta-counter (Beckman). The amount of radioactivity trapped in the pellet corresponds directly with the amount of acid being secreted. Each experimental point is done in triplicate. In each experiment, energy independent consumption was estimated with 0.1 mM of dinitrophenol and basal acid secretion in the absence of acid stimulants. These values were then subtracted from corresponding results in order to calculate basal or secretagogue stimulated acid secretion. […] Each experiment is repeated a number of times and all results are expressed as a % of the maximum stimulation.

The subject of data set [2] is histamine stimulated acid secretion, mouse gastric glands. Nature of the data set: Histamine stimulated acid secretion (14C-aminopyrine accumulation) in isolated mouse gastric glands. Conditions: 100 μM, 60 min, 37° C. In kind it is cell-based. The method, then: as §1
Data set [3] relates to gastric acid secretion, mouse gastric glands. Nature of the data set: In vitro inhibition of gastric acid secretion (14C-aminopyrine accumulation) in isolated mouse gastric glands, secretagogue not stated. The settings on record: 1 h, 60 min, 37° C., read-out: ED50 (the source's name). The class given is cell-based.
The nature of data set [4]: Reaction with phenethyl mercaptan in methanol (chemical model of proton pump thiol reactivity). Conditions: for conversion to 2-mercaptobenzimidazole on reaction with phenethyl mercaptan / time after which reaction with phenethyl mercaptan is complete: methanol. The source says: A useful in vitro model for obtaining an indication of the reactivity of thiadiazole compound towards the proton pump enzyme for deactivation thereof is provided by the reactivity of the thiadiazole compound towards phenethylmercaptan. The chemical mechanism of this process, as applied to the thiadiazolobenzimidazole compounds of the present invention, is diagrammatically illustrated on FIG. 3 of the accompanying drawings. The first stage of reaction forms a disulfide compound by cleavage of the S--N bond of the thiadiazole ring. This disulfide X cannot be isolated, since it reacts very rapidly with a second mercaptan group to give the disulfide of phenethylmercaptan and intermediate XI. In connection with the actual enzyme, the second step involving attack of another thiol group would not happen because of steric factors inhibiting the approach of two enzymes, or would lead to the formation of a disulfide bond in the event that another proximal thiol group is present. In both cases, this would lead to the inhibition of the enzyme. In some cases, intermediate XI further degrades to 2-mercaptobenzimidazole VIII or 1-cyano-2-mercaptobenzimidazole XII. A similar mechanism is followed by the imidazothiadiazoles of the present invention. Further description and discussion of this reaction and test method is included in the specific example section hereof.
To a solution of 23 mg of 3-(dimethylamino)-1,2,4-thiadiazolo[4,5-a]benzimidazole in 10 mL of methanol was added 360 μL of phenethyl mercaptan. After 1 min, the reaction is complete. The solvent was evaporated and the crude material was purified by chromatography to give 15 mg of N^1, N^1 -dimethyl-2-mercapto-1-benzimidazolylamidine: ^1 H NMR (DMSO-d6) δ 7.3-7.0 (m, 4H, 4×ArH), 3.35 (br s, 2H, NH, SH), 2.88 (s, 6H, 2×NCH3) ppm; IR (KBr) .nu. 3210, 1641, 1475, 1452, 1407, 1319 cm^-1; MS m/z 220 (M+), 150 (M^+ -Me2 NC=NH).
To a solution of 23 mg of 3-methoxy-1,2,4-thiadiazolo [4,5-a]benzimidazole in 10 mL of methanol was added 376 μL of phenethyl mercaptan. After 1 min, the reaction is complete. The methyl 2-mercapto-1-benzimidazolecarboximidate was identified as the major reaction product of the reaction: ^1 H NMR (DMSO-d6) δ 13.45 (br s, 1H, SH or NH), 9.8 (s, 1H, NH or SH), 7.7 (d, 1H, J=8 Hz, ArH), 7.35-7.2 (m, 3H, 3×ArH), 3.95 (s, 3H, OCH3) ppm; IR (KBr) .nu. 3437, 3095, 1679, 1450, 1440, 1376, 1193, 735 cm^-1; MS m/z=207 (M^+), 150 (M^+ -MeOC=NH)
To a suspension of 26 mg of 3-(oxophenylmethyl)-1,2,4-thiadiazolo[4,5-a]benzimidazole in 10 mL methanol was added 31 μL of phenethyl mercaptan.
To a suspension of 25 mg of 3-[hydroxy(4-methoxy-3,5-dimethyl-2-pyridyl)methyl]-1,2,4-thiadiazolo[4,5- a]benzimidazole in 10 mL methanol was added 250 μL of phenethyl mercaptan.
To a suspension of 31 mg of 3-[(4-methylphenyl) sulfonyl]-1,2,4-thiadiazolo[4,5-a]benzimidazole in 10 mL methanol was added 313 μL of phenethyl mercaptan.
Phenethyl mercaptan (120 μL, 0.90 mmol) was added to a suspension of 3-[(4-4-methoxy-3,5-dimethyl-2-pyridyl) oxomethyl]-1,2,4-thiadiazolo[4,5-a]benzimidazole (300 mg, 0.887 mmol) in methanol (150 ml) and 0.1 M hydrochloric acid (38 mL). After stirring the mixture at room temperature for 51 h, the mixture was neutralized to pH 6 with aqueous sodium bicarbonate and extracted with ethyl ether. The ether layer was dried on sodium sulfate and evaporated.

Data set [5] is described as follows: Reaction of 1,2,4-thiadiazolo[4,5-a]benzimidazole derivative with 2-mercaptoethanol, determination of t1/2 values. Conditions: compound 5×10^-3 M, 2-mercaptoethanol 1.15×10^-2 M, methanol, R.T., HPLC; 5000 µM. The procedure: The column is eluted with 70% 50 mM ammonium acetate; 30% acetonitrile as the mobile phase.
Percentage reaction completion was calculated as follows:
At time 0, 100% starting material remained unreacted.
At time t, % of unreacted starting material={hsample /hint.std at
time t}/{hsample /hint.std at time O}*100%.

In data set [6] the test system is gastric acid secretion. The data set is described as follows: Suppression of gastric acid secretion in animal model. The class given is in vivo.
The nature of data set [7]: Acid stability in 6 molar hydrochloric acid. The class given is physicochemical. The settings on record: minimum methanol, room temperature.
Description: To examine acid stability of the captioned compound, the compound was dissolved in a minimum volume of methanol and the resulting solution was added to a 6 molar solution of hydrochloric acid.
In data set [8] the test system is gastric acid secretion. Nature of the data set: Histamine-stimulated gastric acid secretion in anesthetized rats (dose-dependent study). The class given is in vivo, Sprague-Dawley rats. The settings on record: rat, oral gavage, at 3, 30, 300 μmol/kg doses; histamine 5 mg/kg i.v. infusion 2 h. The procedure:
Fasted, adult (140-240 g), male, Sprague-Dawley rats were fasted for 24 h from food, but not water, and then treated by oral gavage with 1 to 1.5 mL total volume of 4 different doses (0.3, 3, 30, and 300 μmol/kg) of each compound on different days. Two hours later, rats were anesthetized with a combination of pentobartital and thiopental, the abdomen was opened and the pylorus was ligated, and tracheal, gastric, and peripheral venous canulas were placed. The stomachs were lavaged with 10 mL 0.9% saline every 10 min. for 30 min and the gastric effluent collected in receptacles. Acid output was determined in each gastric effluent sample by back-titration to pH 7.0 using 0.02M NaOH. Then, 5 mL of an 8% peptone meal (pH 5.5) was instilled into the stomachs, mixed, and drained after 10 min each time for 2 hours. Acid output was determined in each gastric effluent sample by back-titration to pH 7.0 using 0.02 M NaOH. After measuring basal acid output for at least 30 minutes, acid output was then measured during a 2 h intravenous infusion of histamine (5 mg/kg).

For data set [9], the system named is gastric acid secretion. Nature of the data set: Meal (8% peptone)-stimulated gastric acid secretion in rats. The class given is in vivo, Sprague-Dawley rats. Conditions: rat, oral gavage, 300 μmol/kg. The method, then: Fasted, adult (140-240 g), male, Sprague-Dawley rats were fasted for 24 h from food, but not water, and then treated by oral gavage with 1 to 1.5 mL total volume of compound of Formula I (300 μmmol/Kg) on different days. Two hours later, rats were anesthetized with a combination of pentobartital and thiopental, the abdomen was opened and the pylorus was ligated, and tracheal, gastric, and peripheral venous canulas were placed. The stomachs were lavaged with 10 mL 0.9% saline every 10 min. for 30 min and the gastric effluent collected in receptacles to determine the basal acid secretion. Acid output was determined in each gastric effluent sample by back-titration to pH 7.0 using 0.02M NaOH. Then, 5 mL of an 8% peptone meal (pH 5.5) was instilled into the stomachs, mixed, and drained after 10 min each time for 2 hours. Acid output was determined in each gastric effluent containing the peptone meal by back-titration to pH 5.5 using 0.02 M NaOH.

The nature of another data set: Solubility in water. The class given is physicochemical.

For the compound `CN1CCN(c2nsc3nc4ccccc4n23)CC1.Cl.Cl` [3-(4-methyl-1-piperazinyl)-1,2,4-thiadiazolo[4,5-a]benzimidazole dihydrochloride], in data set [1], the “inhibition of cAMP stimulated acid secretion” value is “completely inhibited”. The “inhibition of histamine stimulated acid secretion” value in data set [2] was “completely inhibited”. In addition, the IC50 in data set [3] amounted to 50 µM.
For the compound `O=C(c1ccccc1)c1nsc2nc3ccccc3n12` [3-(oxophenylmethyl)-1,2,4-thiadiazolo[4,5-a]benzimidazole], in data set [4], the “conversion to 2-mercaptobenzimidazole on reaction with phenethyl mercaptan” value (“conversion to 2-mercaptobenzimidazole” for short) is “complete conversion”.
For `COc1c(C)cnc(C(=O)c2nsc3nc4ccccc4n23)c1C` [3-[(4-methoxy-3,5-dimethyl-2-pyridyl)oxomethyl]-1,2,4-thiadiazolo[4,5-a]benzimidazole], the “recovered starting material after reaction with phenethyl mercaptan” value in data set [4] (methanol and 0.1 M hydrochloric acid, room temperature, 51 h) was found to be 14.6%.
On to `Cc1ccc(S(=O)(=O)c2nsc3nc4ccccc4n23)cc1` [3-[(4-methylphenyl)sulfonyl]-1,2,4-thiadiazolo[4,5-a]benzimidazole], for which the “conversion to 2-mercaptobenzimidazole” value in data set [4] was “complete conversion”.
With `COc1c(C)cnc(C(O)c2nsc3nc4ccccc4n23)c1C` (stereo not shown) [3-[hydroxy(4-methoxy-3,5-dimethyl-2-pyridyl)methyl]-1,2,4-thiadiazolo[4,5-a]benzimidazole], the “conversion to 2-mercaptobenzimidazole” value in data set [4] is recorded as “complete conversion”.
Consider `CN1CCN(c2nsc3nc4ccccc4n23)CC1` [4-methylpiperazinyl, 3-(4-methyl-1-piperazinyl)-1,2,4-thiadiazolo-[4,5-a]benzimidazole], for which the “t1/2 at pH = 7.0” value in [5] is 6.7 h.
`COc1ccc2c(c1)nc1snc(C(=O)c3ncc(C)c(OC)c3C)n12` [7-methoxy-3-[(4-methoxy-3,5-dimethyl-2-pyridyl)oxomethyl]-1,2,4-thiadiazolo[4,5-a]benzimidazole]: in the data set on gastric acid secretion [6], the “suppression of gastric acid secretion” value is given as “active in the suppression of gastric acid secretion”. In addition, in data set [7], the acid stability result is “very stable in acid and was totally recovered after stirring for 48 hours at room temperature”. Further, the “inhibition of histamine-stimulated acid secretion” value in the data set with gastric acid secretion [8] is listed as “significant (p<0.05) inhibition”. Moreover, the “inhibition of meal-stimulated acid secretion” value in the data set with gastric acid secretion [9] was “significant (p<0.05) inhibition”. In addition, in the data set on gastric acid secretion [9] (8% peptone stimulated, after 1 h), the “acid output after 1 h” value came out at 20 μmmol/30 min. Also, in the data set “Solubility in water”, the solubility in water result is given as “limited solubility in water”.
With `c1ccc(-c2nsc3nc4ccccc4n23)nc1` [Example 2-pyridyl, 3-(2-pyridyl)-1,2,4-thiadiazolo[4,5-a]benzimidazole], in data set [5], the “t1/2 at pH = 7.0” value was 134 h.
For `CN(C)c1nsc2nc3ccccc3n12` [Me2 N, 3-(dimethylamino)-1,2,4-thiadiazolo[4,5-a]benzimidazole], the “t1/2 at pH = 7.0” value in data set [5] was found to be 1.5 h. For the same compound, the “time after which reaction with phenethyl mercaptan is complete” value in [4] is reported as no more than 1 min.
Consider `COc1nsc2nc3ccccc3n12` [MeO, 3-methoxy-1,2,4-thiadiazolo[4,5-a]benzimidazole], for which the “t1/2 at pH = 7.0” value in [5] is 0.31 h. Moreover, the “time after which reaction with phenethyl mercaptan is complete” value in data set [4] was no more than 1 min.
For `COc1ccc2[nH]c([S+]([O-])Cc3ncc(C)c(OC)c3C)nc2c1` (stereo not shown) [Omeprazole, reference compound], the acid stability result in data set [7] is “complete decomposition in a few minutes”.
Consider `CC(=O)c1nsc2nc3ccccc3n12` [acetyl, 3-(1-oxoethyl)-1,2,4-thiadiazolo[4,5-a]benzimidazole], for which the “t1/2 at pH = 7.0” value in data set [5] is 110 h.
As for `Cc1nsc2nc3ccccc3n12` [methyl, 3-methyl-1,2,4-thiadiazolo[4,5-a]benzimidazole], in data set [5], the “t1/2 at pH = 7.0” value was found to be 59 h.
Same read-out and setting: with `c1ccc2c(c1)nc1snc(N3CCOCC3)n12` [morpholino, 3-(4-morpholinyl)-1,2,4-thiadiazolo[4,5-a]benzimidazole] the figure was 2.4 h; with `c1ccc2c(c1)nc1snc(CN3CCOCC3)n12` [morpholinomethyl, 3-(morpholinomethyl)-1,2,4-thiadiazolo[4,5-a]benzimidazole], 98 h; with `c1ccc(-c2nsc3nc4ccccc4n23)cc1` [phenyl], 45 h.

The values are drawn from patent publication US6093738A, “Proton pump inhibitors” (priority 1997, dated 2000).
